Values after ≈ are worked out from the molar mass of the structure shown.
Experiments:
Format in all cases: functional
Staphylococcus aureus [1] = assay: Minimum inhibitory concentration against 3797 Staphylococcus aureus Clin. isolate VISA
Staphylococcus aureus [2] = assay: Minimum inhibitory concentration against 3798 Staphylococcus aureus Clin. isolate VISA
Enterococcus faecium [3] = assay: Minimum inhibitory concentration against 568 Enterococcus faecium (isogenic of L569)
[4] = tested on: Staphylococcus epidermidis; assay: Minimum inhibitory concentration against 147 Staphylococcus epidermidis ATCC 12228
Staphylococcus aureus [5] = assay: Minimum inhibitory concentration against 819 Staphylococcus aureus Smith MSSA
Streptococcus pyogenes = assay: Minimum inhibitory concentration against 49 Streptococcus pyogenes C203
Staphylococcus aureus [6] = assay: Minimum inhibitory concentration against 613 Staphylococcus aureus Clin. isolate Met-R
Staphylococcus aureus [7] = assay: Minimum inhibitory concentration against 1400 Staphylococcus aureus Clin. isolate Met-R
Enterococcus faecium [8] = assay: Minimum inhibitory concentration against 2215 Enterococcus faecium clin. isolate Van-A
Enterococcus faecalis [9] = assay: Minimum inhibitory concentration against 2981 Enterococcus faecalis clin. Isolate Van-A
Enterococcus faecium [10] = assay: Minimum inhibitory concentration against 569 Enterococcus faecium clin. isolate Van-A
Enterococcus faecalis [11] = assay: Minimum inhibitory concentration against 559 Enterococcus faecalis Van-A
Enterococcus faecalis [12] = assay: Minimum inhibitory concentration against 559 Enterococcus faecalis (isogenic of L 560)
Enterococcus faecalis [13] = assay: Minimum inhibitory concentration against 1139 Enterococcus faecalis teico-vanco-sensitive

SMILES | MIC (Staphylococcus aureus [1]) [µg/mL] | MIC (Staphylococcus aureus [2]) [µg/mL] | MIC (Enterococcus faecium [3]) [µg/mL] | MIC [4] [µg/mL] | MIC (Staphylococcus aureus [5]) [µg/mL] | MIC (Streptococcus pyogenes) [µg/mL] | MIC (Staphylococcus aureus [6]) [µg/mL] | MIC (Staphylococcus aureus [7]) [µg/mL] | MIC (Enterococcus faecium [8]) [µg/mL] | MIC (Enterococcus faecalis [9]) [µg/mL] | MIC (Enterococcus faecium [10]) [µg/mL] | MIC (Enterococcus faecalis [11]) [µg/mL] | MIC (Enterococcus faecalis [12]) [µg/mL] | MIC (Enterococcus faecalis [13]) [µg/mL]
CC(=O)N[C@@H]1[C@H](Oc2c3cc4cc2Oc2ccc(cc2Cl)[C@@H](O[C@@H]2O[C@@H](CO)[C@@H](O)[C@H](O)[C@@H]2NC(C)=O)[C@@H]2NC(=O)[C@H](NC(=O)[C@@H]4NC(=O)[C@H]4NC(=O)[C@@H](Cc5ccc(c(Cl)c5)O3)NC(=O)[C@H](N)c3ccc(O)c(c3)Oc3cc(O)cc4c3)c3ccc(O)c(c3)-c3c(O[C@H]4O[C@H](CO)[C@@H](O)[C@@H](O)[C@@H]4O)cc(O)cc3[C@@H](C(=O)O)NC2=O)O[C@@H](CO)[C@@H](O)[C@@H]1O | 16 (≈ 9.05 µM) | 4 (≈ 2.26 µM) | ≤ 0.125 | 2 (≈ 1.13 µM) | 1 (≈ 0.566 µM) | ≤ 0.125 | 1 (≈ 0.566 µM) | 1 (≈ 0.566 µM) | – | – | – | – | – | –
CCCCCCCCCCCC(=O)NC1C(Oc2cc3cc(c2OC)Oc2ccc(cc2[N+](=O)[O-])C[C@@H](NC(=O)[C@H](N)CC(C)C)C(=O)N[C@@H](Cc2ccccc2)C(=O)N[C@H]3[C@@H](O)C(=O)NCCCC(=O)N[C@@H](C(=O)NCCCN(C)C)c2ccccc2)OC(CO)C(O)C1O.O=C(O)C(F)(F)F (stereo partly specified) | 32 | 16 | 16 | 16 | – | 8 | 32 | – | 32 | 32 | 8 | 8 | 16 | 32
CCCCCCCCCCCC(=O)NC1C(Oc2c(Oc3ccc([N+](=O)[O-])cc3)cc3cc2Oc2ccc(cc2[N+](=O)[O-])C[C@@H](NC(=O)[C@H](N)CC(C)C)C(=O)N[C@@H](Cc2ccccc2)C(=O)N[C@H]3[C@H](O)C(=O)O)OC(CO)C(O)C1O.O=C(O)C(F)(F)F (stereo partly specified) | 32 | – | 64 | – | – | 32 | – | – | – | – | 32 | 8 | 8 | 32
CC(C)C[C@@H](N)C(=O)N[C@@H]1Cc2ccc(c([N+](=O)[O-])c2)Oc2cc(cc(Oc3ccc([N+](=O)[O-])cc3)c2O)[C@H]([C@@H](O)C(=O)O)NC(=O)[C@H](Cc2ccccc2)NC1=O.Cl | 64 | – | – | – | – | 64 | – | – | – | – | – | 64 | 64 | –
COc1c(Oc2ccc([N+](=O)[O-])cc2)cc2cc1Oc1ccc(cc1[N+](=O)[O-])C[C@@H](NC(=O)[C@H](N)CC(C)C)C(=O)N[C@@H](Cc1ccccc1)C(=O)N[C@H]2[C@@H](O)C(=O)O.Cl | 16 | – | – | – | – | 16 | – | – | – | – | – | 16 | 16 | 64
CCCCCCCCCCCC(=O)NC1C(Oc2cc3cc(c2OC)Oc2ccc(cc2[N+](=O)[O-])C[C@@H](NC(=O)[C@H](N)CC(C)C)C(=O)N[C@@H](Cc2ccccc2)C(=O)N[C@H]3[C@H](O)C(=O)O)OC(CO)C(O)C1O.Cl (stereo partly specified) | – | – | – | – | – | 32 | – | – | – | – | – | – | – | –
CCCCCCCCCCCC(=O)NC1C(Oc2cc3cc(c2OC)Oc2ccc(cc2[N+](=O)[O-])C[C@@H](NC(=O)[C@H](N)CC(C)C)C(=O)N[C@@H](Cc2ccccc2)C(=O)N[C@H]3[C@@H](O)C(=O)O)OC(CO)C(O)C1O.Cl (stereo partly specified) | – | – | 64 | 64 | – | 32 | – | – | 32 | 32 | 32 | 8 | 8 | 32
CN[C@H](CC(C)C)C(=O)N[C@H]1C(=O)N[C@@H](CC(N)=O)C(=O)N[C@H]2C(=O)N[C@H]3C(=O)N[C@H](C(=O)N[C@H](C(=O)O)c4cc(O)cc(O)c4-c4cc3ccc4O)[C@H](O)c3ccc(c(Cl)c3)Oc3cc2cc(c3O[C@@H]2O[C@H](CO)[C@@H](O)[C@H](O)[C@H]2O[C@H]2C[C@](C)(N)[C@H](O)[C@H](C)O2)Oc2ccc(cc2Cl)[C@H]1O [VANCOMYCIN] | 8 (≈ 5.52 µM) | 8 (≈ 5.52 µM) | 2 (≈ 1.38 µM) | 1 (≈ 0.69 µM) | 1 (≈ 0.69 µM) | ≤ 0.125 | 1 (≈ 0.69 µM) | 1 (≈ 0.69 µM) | – | – | – | – | 1 (≈ 0.69 µM) | 2 (≈ 1.38 µM)
